The text below walks through data of the supplement of paper PMC9663587.

Molecules are shown by their SMILES.

Some test systems named below: SKBR3; MCF7; PDX1258; BT474; HCC1395; MDAMB361; SUM149; PDX1328; ZR7530; MDAMB415; HCC202; MDAMB468.
Assay in all cases: GRmax, 72 h; higher = less effect;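 note: breast cell lines in 384-well plates, nine doses across a 10^4 range, Dye Drop imaging of viable cells vs DMSO and time-zero plates, GR 0 means no net growth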

For `C[C@@H]1COCCN1c1cc(C2([S@](C)(=N)=O)CC2)nc(-c2cc[nH]c3nccc2-3)n1` [AZD6738] (max 10 µM), the “GRmax, 72 h” value with SKBR3 was -0.0886 GR; in the test on MCF7 it was 0.0472 GR; in the test with PDX1258, -0.295 GR; in the test on BT474, 0.267 GR; in the test with HCC1395 it was -0.284 GR; in the test with MDAMB361 it was -0.166 GR. In addition, the “GRmax, 72 h” value was -0.297 GR with SUM149; 0.299 GR in the test on PDX1328; 0.61 GR with ZR7530; 0.522 GR with MDAMB415; 0.383 GR with HCC202; 0.529 GR in the test with MDAMB468.

`NC(=O)Nc1cc(-c2cccc(F)c2)sc1C(=O)N[C@H]1CCCNC1` [AZD7762] (max 10 µM): the “GRmax, 72 h” value was -0.451 GR in the test with SKBR3; -0.186 GR in the test on MCF7; -0.453 GR in the test with PDX1258; 0.0014 GR with BT474; -0.69 GR in the test with HCC1395; -0.675 GR in the test with MDAMB361. The “GRmax, 72 h” value in the test with SUM149 is -0.477 GR; in the test on PDX1328 it was -0.578 GR; in the test on ZR7530, 0.0949 GR; with MDAMB415, -0.481 GR; in the test with HCC202, -0.277 GR; with MDAMB468, -0.586 GR.

For `Cc1nc(NC(=O)N2CCC[C@H]2C(N)=O)sc1-c1ccnc(C(C)(C)C(F)(F)F)c1` [Alpelisib/BYL719] (max 10 µM), the “GRmax, 72 h” value in the test with SKBR3 was -0.143 GR; in the test on MCF7, 0.0207 GR; in the test on PDX1258, 0.631 GR; in the test on BT474, -0.809 GR; with HCC1395 it was 0.637 GR; in the test with MDAMB361, -0.799 GR. The “GRmax, 72 h” value in the test with SUM149 is 0.848 GR; with PDX1328, 0.203 GR; in the test on ZR7530, -0.0068 GR; with MDAMB415, 0.613 GR; in the test with HCC202, 0.0449 GR; with MDAMB468 it was 0.714 GR.

For `CN(C)C/C=C/C(=O)Nc1ccc(O[C@@H]2CCC[C@@H](Nc3ncc(Cl)c(-c4c[nH]c5ccccc45)n3)C2)cc1` [BSJ-01-175] (max 10 µM), the “GRmax, 72 h” value in the test on SKBR3 is -0.769 GR; in the test on MCF7, -0.627 GR; in the test with PDX1258 it was -0.914 GR; with BT474, -0.962 GR; with HCC1395 it was -0.862 GR; with MDAMB361 it was -0.804 GR. The “GRmax, 72 h” value with SUM149 is -0.617 GR; in the test on PDX1328, -0.254 GR; in the test with ZR7530, -0.943 GR; with MDAMB415 it was -0.491 GR; with HCC202, -0.201 GR; in the test on MDAMB468, -0.617 GR.

Take `CC(=O)c1c(C)c2cnc(Nc3ccc(N4CCN(CCOCCOCCOCCNC(=O)COc5cccc6c5C(=O)N(C5CCC(=O)NC5=O)C6=O)CC4)cn3)nc2n(C2CCCC2)c1=O` (configuration not stated) [BSJ-03-123] (max 10 µM): the “GRmax, 72 h” value in the test with SKBR3 was -0.347 GR; with MCF7, -0.323 GR; in the test on PDX1258, -0.415 GR; in the test with BT474, -0.0209 GR; in the test with HCC1395 it was -0.171 GR; with MDAMB361, -0.0849 GR. In addition, the “GRmax, 72 h” value in the test with SUM149 was -0.0089 GR; in the test on PDX1328 it was 0.28 GR; in the test with ZR7530, -0.258 GR; with MDAMB415, 0.149 GR; in the test on HCC202, 0.0834 GR; in the test with MDAMB468, -0.0298 GR.

Consider `CC(C)Nc1cc(-c2c[nH]c(C(=O)N[C@H](CO)c3cccc(Cl)c3)c2)c(Cl)cn1` [BVD523] (max 10 µM), for which the “GRmax, 72 h” value in the test on SKBR3 amounted to 0.34 GR; in the test with MCF7, 0.334 GR; in the test with PDX1258 it was 0.163 GR; in the test with BT474, 0.977 GR; in the test with HCC1395, 0.253 GR; in the test with MDAMB361 it was 0.27 GR. Moreover, the “GRmax, 72 h” value in the test with SUM149 was found to be 0.204 GR; in the test with PDX1328, 0.752 GR; in the test on ZR7530, 0.562 GR; in the test on MDAMB415 it was 0.533 GR; with HCC202, 0.57 GR; in the test with MDAMB468 it was 0.402 GR.

On to `Cc1c(N)nc([C@H](CC(N)=O)NC[C@H](N)C(N)=O)nc1C(=O)N[C@H](C(=O)N[C@H](C)[C@@H](O)[C@H](C)C(=O)N[C@H](C(=O)NCCc1nc(-c2nc(C(=O)NCCC[S+](C)C)cs2)cs1)[C@@H](C)O)[C@@H](OC1OC(CO)C(O)C(O)C1OC1OC(CO)C(O)C(OC(N)=O)C1O)c1cnc[nH]1` (some centres not stated) [Bleomycin] (max 10 µM), for which the “GRmax, 72 h” value was 0.187 GR in the test on SKBR3 (main component drawn); -0.0459 GR in the test on MCF7 (main component drawn); 0.0721 GR in the test on PDX1258 (main component drawn); -0.402 GR in the test with HCC1395 (main component drawn); -0.266 GR in the test with MDAMB361 (main component drawn); -0.315 GR in the test on SUM149 (main component drawn). Besides, the “GRmax, 72 h” value in the test on PDX1328 (main component drawn) was 0.306 GR; with MDAMB468 (main component drawn), -0.21 GR.

On to `Nc1cc(C(F)(F)F)c(-c2cc(N3CCOCC3)nc(N3CCOCC3)n2)cn1` [Buparlisib/NVP-BKM120] (max 10 µM), for which the “GRmax, 72 h” value with SKBR3 is -0.373 GR; in the test with MCF7, -0.269 GR; in the test on PDX1258, -0.392 GR; in the test with BT474 it was -0.851 GR; in the test with HCC1395, -0.506 GR; in the test on MDAMB361 it was -0.958 GR. Further, the “GRmax, 72 h” value with SUM149 was -0.331 GR; in the test with PDX1328 it was -0.351 GR; in the test with ZR7530, -0.408 GR; in the test with MDAMB415 it was -0.515 GR; in the test with HCC202 it was -0.0463 GR; with MDAMB468, -0.516 GR.
